Results from US20050220779A1, “Integrin linked kinase modulation of macrophage activation” (priority 2001, published 2005).

Columns and labels:
SRC = SRC (Homo sapiens, UniProt P12931); assay: Protein kinase selectivity, SRC; format: biochemical
HUVEC cells = assay: In vitro Matrigel morphogenesis (tube formation) assay of VEGF stimulated HUVEC cells; format: cell-based, human; conditions: 100 mM (so in the source)
Experimental: In Vitro Angiogenesis. […] After 5 hours of incubation in a 5% CO2-humidified atmosphere at 37 °C, the three-dimensional organization of the cells was examined using an inverted photomicroscope. The cells were fixed with Crystal Violet (0.05% in 20% ethanol) and digitally photographed.
To determine the anti-angiogenic properties of ILK inhibitors, an in vitro Matrigel morphogenesis assay was established. This assay evaluates the ability of endothelial cells to differentiate into capillary-like structures, a crucial step during neovascularization. HUVEC cells when stimulated with VEGF and seeded onto Matrigel rapidly attach to the matrix and begin to migrate and interact with the extracellular matrix proteins present in the Matrigel. […] These capillary-like structures can be assessed by histology (FIG. 2). Samples are cut on a cross section and subsequent viewed using an electron microscope. Typically, cylindrical formations with a lumen are observed. A distinct difference in the morphology of tube formation on Matrigel, compared to other in vitro angiogenesis assays is a reduction in the proliferation of endothelial cells. […] Using this model system, both inhibitors and stimulators of angiogenesis can be assessed prior to in vivo testing.
The assay was established and reproducibility confirmed. SU5416, shown to inhibit angiogenesis in other assays, was also evaluated. […]

CK2 = CK2 (Homo sapiens, UniProt P68400); assay: Protein kinase selectivity, CK2; format: biochemical
GSK3β = GSK3β (Homo sapiens, UniProt P49841); assay: Protein kinase selectivity, GSK3β; format: biochemical
CDC2 = CDC2 (Homo sapiens, UniProt P06493); assay: Protein kinase selectivity, CDC2; format: biochemical
ERK1 = ERK1 (Homo sapiens, UniProt P27361); assay: Protein kinase selectivity, ERK1; format: biochemical
Chain of ERK1 (P27361 whole entry, species assumed): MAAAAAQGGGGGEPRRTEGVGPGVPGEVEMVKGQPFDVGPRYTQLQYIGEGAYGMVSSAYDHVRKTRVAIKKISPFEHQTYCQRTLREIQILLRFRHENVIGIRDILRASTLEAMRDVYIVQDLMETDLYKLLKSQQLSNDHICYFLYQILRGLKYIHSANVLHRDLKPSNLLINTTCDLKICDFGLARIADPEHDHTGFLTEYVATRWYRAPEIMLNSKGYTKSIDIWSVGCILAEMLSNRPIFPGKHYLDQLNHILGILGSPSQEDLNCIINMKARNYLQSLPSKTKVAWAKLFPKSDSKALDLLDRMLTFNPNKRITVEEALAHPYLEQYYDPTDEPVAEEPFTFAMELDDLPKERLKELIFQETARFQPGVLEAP

Chain of CK2 (P68400 whole entry): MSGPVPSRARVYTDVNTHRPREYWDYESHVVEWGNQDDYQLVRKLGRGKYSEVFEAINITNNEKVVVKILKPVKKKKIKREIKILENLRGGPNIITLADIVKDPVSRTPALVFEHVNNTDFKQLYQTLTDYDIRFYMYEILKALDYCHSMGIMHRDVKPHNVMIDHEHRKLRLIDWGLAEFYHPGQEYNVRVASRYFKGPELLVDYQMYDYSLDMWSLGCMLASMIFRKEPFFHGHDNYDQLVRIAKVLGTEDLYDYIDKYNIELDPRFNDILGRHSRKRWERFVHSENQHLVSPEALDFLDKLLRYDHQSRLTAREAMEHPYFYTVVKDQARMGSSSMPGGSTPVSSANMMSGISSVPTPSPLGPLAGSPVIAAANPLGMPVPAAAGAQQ
Chain of CDC2 (P06493 whole entry, species assumed): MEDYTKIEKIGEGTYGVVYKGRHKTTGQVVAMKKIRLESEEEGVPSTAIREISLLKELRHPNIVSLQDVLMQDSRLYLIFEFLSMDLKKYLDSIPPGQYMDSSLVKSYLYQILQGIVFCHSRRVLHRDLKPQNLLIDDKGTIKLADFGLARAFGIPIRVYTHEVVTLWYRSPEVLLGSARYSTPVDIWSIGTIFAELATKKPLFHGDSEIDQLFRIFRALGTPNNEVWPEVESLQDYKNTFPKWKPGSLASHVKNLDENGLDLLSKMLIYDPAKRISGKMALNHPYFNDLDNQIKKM
Chain of CDC2 (P14635 whole entry partner, species assumed): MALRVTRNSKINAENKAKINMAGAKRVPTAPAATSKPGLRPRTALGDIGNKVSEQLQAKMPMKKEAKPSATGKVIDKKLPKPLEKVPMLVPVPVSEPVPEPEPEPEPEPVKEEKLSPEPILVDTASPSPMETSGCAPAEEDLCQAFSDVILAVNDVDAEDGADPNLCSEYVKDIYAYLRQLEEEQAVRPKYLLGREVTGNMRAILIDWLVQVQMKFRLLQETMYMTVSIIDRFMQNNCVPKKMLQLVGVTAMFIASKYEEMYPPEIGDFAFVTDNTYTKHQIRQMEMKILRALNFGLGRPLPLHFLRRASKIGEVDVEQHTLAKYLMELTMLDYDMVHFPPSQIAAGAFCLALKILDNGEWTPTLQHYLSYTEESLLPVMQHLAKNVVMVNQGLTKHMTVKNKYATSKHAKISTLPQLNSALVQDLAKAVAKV
Chain of SRC (P12931 whole entry, species assumed): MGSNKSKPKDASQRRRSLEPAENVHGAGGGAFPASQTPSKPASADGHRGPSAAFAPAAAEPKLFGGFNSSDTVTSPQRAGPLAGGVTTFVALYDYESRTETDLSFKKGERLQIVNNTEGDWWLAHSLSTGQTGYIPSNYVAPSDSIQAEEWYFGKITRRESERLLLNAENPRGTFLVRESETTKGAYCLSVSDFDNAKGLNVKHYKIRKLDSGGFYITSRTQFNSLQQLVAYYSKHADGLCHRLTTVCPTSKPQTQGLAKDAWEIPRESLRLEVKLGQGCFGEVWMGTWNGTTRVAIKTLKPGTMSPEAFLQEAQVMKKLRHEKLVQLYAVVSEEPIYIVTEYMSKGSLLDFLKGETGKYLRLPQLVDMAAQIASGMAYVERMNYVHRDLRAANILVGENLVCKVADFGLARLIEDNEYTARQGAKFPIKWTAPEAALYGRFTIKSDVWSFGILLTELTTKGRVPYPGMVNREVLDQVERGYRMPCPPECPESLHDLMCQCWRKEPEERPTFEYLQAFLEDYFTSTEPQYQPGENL
Chain of GSK3β (P49841 whole entry, species assumed): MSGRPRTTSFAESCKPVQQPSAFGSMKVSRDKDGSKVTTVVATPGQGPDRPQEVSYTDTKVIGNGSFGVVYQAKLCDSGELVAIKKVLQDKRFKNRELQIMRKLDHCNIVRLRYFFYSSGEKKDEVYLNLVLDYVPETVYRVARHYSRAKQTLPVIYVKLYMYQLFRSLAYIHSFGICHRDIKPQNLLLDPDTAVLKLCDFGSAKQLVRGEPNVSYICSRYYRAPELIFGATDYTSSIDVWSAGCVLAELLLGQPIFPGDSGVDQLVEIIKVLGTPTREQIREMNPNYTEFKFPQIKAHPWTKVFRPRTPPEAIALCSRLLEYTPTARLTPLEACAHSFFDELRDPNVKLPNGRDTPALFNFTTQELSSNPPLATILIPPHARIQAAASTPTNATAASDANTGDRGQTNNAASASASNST

Compound: Oc1ccc2c(c1)CC1NCCc3cc(O)c(O)c-2c31 (stereo not drawn) [KP-21849, 5,6,6a,7-Tetrahydro-4H-dibenzo[de,g]quinoline-1,2,9-triol]
- Inhibition of SRC (in words) (SRC): does not significantly inhibit
- Effect on endothelial cell morphogenesis (in words) (HUVEC cells): profound effect on HUVEC cells
- Inhibition of CK2 (in words) (CK2): does not significantly inhibit
- Inhibition of GSK3β (in words) (GSK3β): does not significantly inhibit
- Inhibition of CDC2 (in words) (CDC2): does not significantly inhibit
- Inhibition of ERK1 (in words) (ERK1): does not significantly inhibit
